Measurements reported in patent US20210145838A1, “SELECTIVE PDE4D INHIBITORS AGAINST DEMYELINATING DISEASES” (Universiteit Hasselt, priority 2018, published 2021).

Tested on: cuprizone demyelinated mice
Assay: Object location task (spatial memory) in cuprizone-demyelinated mice
Format: in vivo, mouse
Conditions: for Spatial discrimination index (d2), object location task: day 45 and 47; for Spatial memory in the object location task (D2): day 47, 3 h inter-trial-interval
Description: FIG. 11: Inhibition of PDE4 by roflumilast improves spatial memory upon cuprizone-induced demyelination—a functional measure for remyelination. Forty-two nine-weeks-old male C57bl6 mice were trained for the object location task (OLT) as described previously (Sierksma et al. 2014) (day −14−0). Subsequently, three groups were fed a 0.3% cuprizone diet for 6 weeks to induce demyelination while the control group received a regular chow diet (day 0-42). From day 40 till day 49, control (n=10) and vehicle (n=10) treated animals received a s.c. injection with a 1% DMSO in 0.5% methylcellulose solution or roflumilast (roflu 1 mg/kg (n=11) or roflu 3 mg/kg (n=11) in vehicle) twice a day. All animals were sacrificed at day 49 (A). During the last phase of the cuprizone treatment (demyelination), the OLT was performed at the 3 h inter-trial-interval at day 39.
Next, the OLT was performed during remyelination following cuprizone withdrawal, respectively at 47. […] A one sample t-test was performed to test for spatial memory (e.g. D2≠0*p<0.05; **p<0.01; ***p<0.001). […] All mice not reaching an exploration time of 4 s in either of two trials were excluded from analyses. Extreme values were excluded by means of Dixon's principles of exclusion of extreme values.
FIG. 14: Inhibition of PDE4D by Gebr32a improves spatial memory upon cuprizone-induced demyelination—a functional measure for remyelination. Eighty-eight nine-weeks-old male C57bl6 mice were trained for the object location task (OLT; n=22 per group) as described previously (Sierksma et al. 2014) (day −14−0). Subsequently, three groups were fed a 0.3% cuprizone diet for 6 weeks to induce demyelination while the control group received a regular chow diet (day 0-42). From day 40 till day 49, control and vehicle treated animals received a s.c. injection with a 1% DMSO in 0.5% methylcellulose solution or gebr32a (0.1 mg/kg or 0.3 mg/kg in vehicle) twice a day. All animals were sacrificed at day 49 (A).
Next, the OLT was performed during remyelination following cuprizone withdrawal, respectively at day 45 and 47.
A one sample t-test was performed to test for spatial memory (e.g. D2=/0; *p<0.05; **p<0.01; ***p<0.001). A one-way ANOVA with a Tukey's multiple comparison test was performed. All mice not reaching an exploration time of 4 s in either of two trials were excluded from analyses. Extreme values were calculated and excluded by means of Dixon's principles of exclusion of extreme values.
At the start of the experiment, all animals were phenotyped for baseline cognitive performance in the object location task. Afterwards, 4 groups were defined (n1=13, n2=16, n3=11, n4=11) and group 2, 3 and 4 were subjected to a 0.3% w/w cuprizone diet (Bis(cyclohexanone)-oxaldihydrazone) (Sigma-Aldrich, United States) for 42 days. […]

| SMILES | Spatial discrimination index (d2), object location task (0.1 mg/kg s.c. twice a day) | Spatial discrimination index (d2), object location task (0.3 mg/kg s.c. twice a day) | Spatial memory in the object location task (D2) (1 mg/kg s.c. twice a day) | Spatial memory in the object location task (D2) (3 mg/kg s.c. twice a day) |
| --- | --- | --- | --- | --- |
| OC(CN1CCOCC1)Cn1ccc(-c2ccc(OC(F)F)c(OC3CCCC3)c2)n1 (stereo not shown) [Gebr32a] | restored the spatial discrimination index (d2) to a level comparable to that of the control animals | restored the spatial discrimination index (d2) to a level comparable to that of the control animals | – | – |
| O=C(Nc1c(Cl)cncc1Cl)c1ccc(OC(F)F)c(OCC2CC2)c1 [roflumilast] | – | – | did not show a recovery of the spatial memory | significant recovery of spatial memory |
